A value given as a limit tells only on which side of the number the result lay.

This assay has as its target T1, full-length human PKCι (Homo sapiens, UniProt P41743).
T1 construct: Recombinant, full-length human PKCι expressed in Sf21 insect cells is also commercially available; purchased EMD Millipore; host or cells: Sf21 insect cells (baculovirus)
T1 sequence (P41743 1-596): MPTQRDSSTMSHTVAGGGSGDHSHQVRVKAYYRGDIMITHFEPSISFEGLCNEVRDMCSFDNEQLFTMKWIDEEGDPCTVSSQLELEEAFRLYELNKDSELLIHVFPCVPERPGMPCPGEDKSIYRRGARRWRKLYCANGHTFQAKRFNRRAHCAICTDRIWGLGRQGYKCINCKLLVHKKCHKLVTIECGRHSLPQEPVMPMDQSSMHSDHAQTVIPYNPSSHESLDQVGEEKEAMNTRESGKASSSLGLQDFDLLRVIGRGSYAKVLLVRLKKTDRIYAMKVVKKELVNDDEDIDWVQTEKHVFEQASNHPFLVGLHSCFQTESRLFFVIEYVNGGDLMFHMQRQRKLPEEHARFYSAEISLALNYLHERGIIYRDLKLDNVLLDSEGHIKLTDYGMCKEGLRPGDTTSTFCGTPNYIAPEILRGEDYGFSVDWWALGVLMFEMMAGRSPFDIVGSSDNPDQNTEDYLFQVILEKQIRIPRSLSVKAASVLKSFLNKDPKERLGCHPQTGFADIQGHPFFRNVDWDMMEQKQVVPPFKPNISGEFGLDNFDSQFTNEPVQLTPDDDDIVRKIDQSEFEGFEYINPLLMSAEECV
Description: PKCι IC50 IMAP fluorescence polarisation assay, full-length enzyme, 150 μM ATP. Particulars: read-out: IC50 in IMAP assay against full length PKCi at 150 μM ATP. The format is biochemical. In a few lines:
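IMAP fluorescence polarisation kinase assay: 15 pM baculovirus-expressed human PKCiota with 100 nM FAM-pseudosubstrate peptide and 150 μM ATP, 1 h at 25 °C. IMAP detection reagent then 2 h at 25 °C before FP measurement. Inhibition referenced to no-compound and no-enzyme controls for IC50 fitting.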
A general note: Fluorescence polarisation rises when a labelled molecule tumbles more slowly, as on binding a larger partner.

As a reminder, the IC50 is the midpoint of a concentration-inhibition curve. Regarding `CC1(C)CNCC[C@@H]1Nc1nc(-c2ccnc(Nc3nc(F)ccc3F)c2)nc2cncc(C3CC3)c12` [Example 158, {5-Cyclopropyl-2-[2-(3,6-difluoro-pyridin-2-ylamino)-pyridin-4-yl]-pyrido[3,4-d]pyrimidin-4-yl}-((S)-3,3-dimethyl-piperidin-4-yl)-amine], the IC50 was less than 100 nM.

Consider `OC[C@@H]1CNCCN1c1nc(-c2ccnc3[nH]c(C(F)(F)F)cc23)nc2cncc(C3CCC3)c12` [Example 5, {(S)-1-[5-Cyclobutyl-2-(2-trifluoromethyl-1H-pyrrolo[2,3-b]pyridin-4-yl)-pyrido[3,4-d]pyrimidin-4-yl]-piperazin-2-yl}-methanol], for which the IC50 was 1000 to 10000 nM.

As to `Fc1cc(F)c(Nc2cc(-c3nc(N[C@H]4[C@@H]5CNC[C@@H]54)c4c(C5CCC5)cncc4n3)ccn2)nc1F` [Example 108, (1S,6S)-3-Aza-bicyclo[3.1.0]hex-6-yl-{(R)-5-cyclobutyl-2-[2-(3,5,6-trifluoro-pyridin-2-ylamino)-pyridin-4-yl]-pyrido[3,4-d]pyrimidin-4-yl}-amine], the IC50 is less than 100 nM.

With `CC1(C)CNCC[C@@H]1Nc1nc(-c2ccnc(Nc3c(F)cccc3F)c2)nc2cncc(C3CCC3)c12` [Example 255, {5-Cyclobutyl-2-[2-(2,6-difluoro-phenylamino)-pyridin-4-yl]-pyrido[3,4-d]pyrimidin-4-yl}-((S)-3,3-dimethyl-piperidin-4-yl)-amine], the IC50 is less than 100 nM.

Turning to `CSc1cc2c(-c3nc(N4CCNCC4)c4c(C5CCC5)cncc4n3)ccnc2[nH]1` [Example 17, 5-Cyclobutyl-2-(2-methylsulfanyl-1H-pyrrolo[2,3-b]pyridin-4-yl)-4-piperazin-1-yl pyrido[3,4-d] pyrimidine], the IC50 was less than 100 nM.

As for `CC1(C)CNCCC1Nc1nc(-c2ccnc3[nH]c(-c4ccc(C(N)=O)cc4)cc23)nc2cncc(C3CC3)c12` (stereo not drawn) [Example 156, 4-{4-[5-Cyclopropyl-4-(3,3-dimethyl-piperidin-4-ylamino)-pyrido[3,4-d]pyrimidin-2-yl]-1H-pyrrolo[2,3-b]pyridin-2-yl}-benzamide], the IC50 is less than 100 nM.

As to `CC1(C)CNCCC1Nc1nc(-c2ccnc3[nH]c(-c4cc(Cl)ccc4Cl)cc23)nc2cncc(C3CC3)c12` (stereo in doubt) [Example 353, {5-Cyclopropyl-2-[2-(2,5-dichloro-phenyl)-1H-pyrrolo[2,3-b]pyridin-4-yl]-pyrido[3,4-d]pyrimidin-4-yl}-((S)-3,3-dimethyl-piperidin-4-yl)-amine], the IC50 was less than 100 nM.

On to `CC1(C)CNCCC1Nc1nc(-c2ccnc(NCc3c(F)cccc3F)c2)nc2cncc(C3CCC3)c12` (stereo not drawn) [Example 96, {5-Cyclobutyl-2-[2-(2,6-difluoro-benzylamino)-pyridin-4-yl]-pyrido[3,4-d]pyrimidin-4-yl}-(3,3-dimethyl-piperidin-4-yl)-amine], for which the IC50 is less than 100 nM.

For `C[C@@H]1CNCC[C@H]1Nc1nc(-c2ccnc3[nH]c4ccccc4c23)nc2cncc(C3CCC3)c12` (racemic) [Example 346, [5-Cyclobutyl-2-(9H-pyrido[2,3-b]indol-4-yl)-pyrido[3,4-d]pyrimidin-4-yl]-(rac-(3R,4R)-3-methyl-piperidin-4-yl)-amine], the IC50 is less than 100 nM.

`CC1(C)CNCC[C@@H]1Nc1nc(-c2ccnc(Nc3cccc(C#N)n3)c2)nc2cncc(C3CCC3)c12` [Example 317, 6-{4-[5-Cyclobutyl-4-((S)-3,3-dimethyl-piperidin-4-ylamino)-pyrido[3,4-d]pyrimidin-2-yl]-pyridin-2-ylamino}-pyridine-2-carbonitrile]: the IC50 is less than 100 nM.

Take `CC1(C)CNCCC1Nc1nc(-c2ccnc(Nc3ccc(F)cn3)c2)nc2cncc(C3CC3)c12` (stereo not drawn) [Example 48, {5-Cyclopropyl-2-[2-(5-fluoro-pyridin-2-ylamino)-pyridin-4-yl]-pyrido[3,4-d]pyrimidin-4-yl}-(3,3-dimethyl-piperidin-4-yl)-amine]: the IC50 is less than 100 nM.

In the case of `CC1(C)CNCC[C@@H]1Nc1nc(-c2cccc(Nc3cnccn3)c2)nc2cncc(C3CCC3)c12` [Example 324, 5-Cyclobutyl-N-[(4S)-3,3-dimethyl-4-piperidyl]-2-[3-(pyrazin-2-ylamino)phenyl]pyrido[3,4-d]pyrimidin-4-amine], the IC50 was 1000 to 10000 nM.

As for `Clc1ccc(-c2cc3c(-c4nc(N5CCC6NCCC65)c5c(C6CC6)cncc5n4)ccnc3[nH]2)cc1` (stereo not drawn) [Example 140, 2-[2-(4-Chloro-phenyl)-1H-pyrrolo[2,3-b]pyridin-4-yl]-5-cyclopropyl-4-(hexahydro-pyrrolo[3,2-b]pyrrol-1-yl)-pyrido[3,4-d]pyrimidine], the IC50 was less than 100 nM.

As to `CC1(C)CNCC[C@@H]1Nc1nc(-c2ccnc3[nH]c(C(=O)NC4CCCCC4)cc23)nc2cncc(C3CC3)c12` [Example 355, 4-[5-Cyclopropyl-4-((S)-3,3-dimethyl-piperidin-4-ylamino)-pyrido[3,4-d]pyrimidin-2-yl]-1H-pyrrolo[2,3-b]pyridine-2-carboxylic acid cyclohexylamide], the IC50 was less than 100 nM.

For the molecule `CC1(C)CNCCC1Nc1nc(-c2ccnc(Nc3ccccc3)c2)nc2cncc(C3CCC3)c12` (stereo not drawn) [Example 91, [5-Cyclobutyl-2-(2-phenylamino-pyridin-4-yl)-pyrido[3,4-d]pyrimidin-4-yl]-(3,3-dimethyl-piperidin-4-yl)-amine], the IC50 was less than 100 nM.

Consider `O[C@H]1CNCC[C@H]1Nc1nc(-c2ccnc(Nc3ncccc3F)c2)nc2cncc(C3CC3)c12` (racemic) [Example 305, rac-(3S,4R)-4-{5-Cyclopropyl-2-[2-(3-fluoro-pyridin-2-ylamino)-pyridin-4-yl]-pyrido[3,4-d]pyrimidin-4-ylamino}-piperidin-3-ol], for which the IC50 is 100 to 1000 nM.

Consider `CN(c1nc(-c2ccnc3[nH]c4ccccc4c23)nc2cncc(C3CCC3)c12)C1CCCNCC1` (stereo not drawn) [Example 44, Azepan-4-yl-[5-cyclobutyl-2-(9H-pyrido[2,3-b]indol-4-yl)-pyrido[3,4-d]pyrimidin-4-yl]-methyl-amine], for which the IC50 was less than 100 nM.

On to `CC1(C)CNCCC1Nc1nc(-c2ccnc(Nc3nc(C4CC4)cs3)c2)nc2cncc(C3CC3)c12` (stereo not drawn) [Example 39, {5-Cyclopropyl-2-[2-(4-cyclopropyl-thiazol-2-ylamino)-pyridin-4-yl]-pyrido[3,4-d]pyrimidin-4-yl}-(3,3-dimethyl-piperidin-4-yl)-amine], for which the IC50 was 100 to 1000 nM.

Consider `O[C@]12CCN(c3nc(-c4ccnc(Nc5ncn(Cc6ccccc6)n5)c4)nc4cncc(C5CC5)c34)[C@H]1CCNC2` (racemic) [Example 240, rac-(3aS,7aS)-1-{2-[2-(1-Benzyl-1H-1,2,4-triazol-3-ylamino)-pyridin-4-yl]-5-cyclopropyl-pyrido[3,4-d]pyrimidin-4-yl}-octahydro-pyrrolo[3,2-c]pyridin-3a-ol], for which the IC50 was less than 100 nM.

Regarding `Fc1cc(F)c(Nc2cc(-c3nc(N4CCC5NCCCC54)c4c(C5CCC5)cncc4n3)ccn2)nc1F` (stereo not drawn) [Example 123, {4-[5-Cyclobutyl-4-(octahydro-pyrrolo[3,2-b]pyridin-1-yl)-pyrido[3,4-d]pyrimidin-2-yl]-pyridin-2-yl}-(3,5,6-trifluoro-pyridin-2-yl)-amine], the 50% inhibitory concentration (IC50) is less than 100 nM.

On to `c1ccc(-n2cnc(Nc3cc(-c4nc(N5CCNCC5)c5c(C6CCC6)cncc5n4)ccn3)n2)cc1` [Example 330, 4-(5-Cyclobutyl-4-piperazin-1-yl-pyrido[3,4-d]pyrimidin-2-yl)-N-(1-phenyl-1,2,4-triazol-3-yl)pyridin-2-amine], for which the IC50 was less than 100 nM.

(Values after patent US10414763B2 (CANCER RESEARCH TECHNOLOGY LIMITED, priority 2014, dated 2019).)
